# Assay type: physicochemical
# From the text: This intermediate level of solubility can lead to particle size increase of the drug in a suspension formulation. It is well known that particles having a diameter of greater than about 10 μm are not suitable for inhalation to the lung. Therefore particle size increase can threaten the utility of a pharmaceutical aerosol formulation.
compound,measurement,value
"CC1(C)O[C@@H]2C[C@H]3[C@@H]4C[C@H](F)C5=CC(=O)C=C[C@]5(C)[C@H]4[C@@H](O)C[C@]3(C)[C@]2(C(=O)CO)O1 [flunisolide hemihydrate, 6α-fluoro-11β, 16α, 17,21-tetrahydroxypregna-1,4-diene-3,20-dione cyclic 16,17-acetal with acetone]",solubility in 1:1 blend of HFA 134a and HFA 227,about 0.007 % by weight
same,solubility in HFA 134a,about 0.006 % by weight
same,solubility in HFA 227,about 0.004 % by weight
